Results taken from ChEMBL document CHEMBL4421722, “Inhibitors of protein prenyltransferases” (2013).

Organism: Rattus norvegicus
Assay: Inhibition of rat recombinant geranylgeranyltransferase type I expressed in Escherichia coli assessed as residual enzyme activity for geranylgeranylation of K-Ras4B at 50 uM incubated for 30 mins in presence of [3H]GGPP by scintillation counting assay relative to control

SMILES	Activity [%]
CCCCCS[C@@H]1C[C@@H](c2ccc(C)cc2)N(S(=O)(=O)c2ccc(C)cc2)C[C@H]1C(=O)O	74.3
Cc1ccccc1S(=O)(=O)N1C[C@@H](C(=O)O)[C@H](SCC(C)C)C[C@H]1c1ccc(Cl)cc1	76.1
COc1ccc([C@@H]2CC=C(C(=O)O)[C@H](c3ccc(C(C)(C)C)cc3)N2S(=O)(=O)c2ccccc2)cc1	82.2
CCCCCS[C@@H]1C[C@@H](c2ccc(OC)cc2)N(S(=O)(=O)c2ccccc2C)C[C@H]1C(=O)O	67.1
Cc1ccc(S(=O)(=O)N2[C@@H](c3ccc(F)cc3)C(C(=O)O)=CC[C@H]2c2cccc(Cl)c2)cc1	60.2
CCc1ccc([C@@H]2C[C@@H](SCCC(C)C)[C@H](C(=O)O)CN2S(=O)(=O)c2ccc(C)cc2)cc1	71.9
CCCS[C@@H]1C[C@@H](c2ccccc2)N(S(=O)(=O)c2ccc(C)cc2)C[C@H]1C(=O)O	75.7
COc1cccc([C@@H]2CC=C(C(=O)O)[C@H](c3cccc(F)c3)N2S(=O)(=O)c2ccc(C)cc2)c1	82.9
CCS[C@@H]1C[C@@H](c2ccc(OC)c(OC)c2)N(S(=O)(=O)c2ccc(C)cc2)C[C@H]1C(=O)O	74.4
CCS[C@@H]1C[C@@H](c2ccc(OC)cc2)N(S(=O)(=O)c2ccc(C)cc2)C[C@H]1C(=O)O	96.3
Cc1ccc(S(=O)(=O)N2[C@@H](c3cccc(Cl)c3)C(C(=O)O)=CC[C@H]2c2ccccc2)cc1	71.3
COc1ccc([C@@H]2CC=C(C(=O)O)[C@H](c3ccc(Br)cc3)N2S(=O)(=O)c2ccc(C)cc2)cc1	72.1
CCS[C@@H]1C[C@@H](c2ccc(C)cc2)N(S(C)(=O)=O)C[C@H]1C(=O)O	94.8
CCOc1ccc([C@@H]2CC=C(C(=O)O)[C@H](c3ccc(Br)cc3)N2S(=O)(=O)c2ccc(C)cc2)cc1	79.4
Cc1ccc(S(=O)(=O)N2C[C@@H](C(=O)O)[C@H](Sc3ccccc3)C[C@H]2c2ccccc2)cc1	49.3
CCCS[C@@H]1C[C@@H](c2ccc3c(c2)OCO3)N(S(=O)(=O)c2ccc(C)cc2)C[C@H]1C(=O)O	83.6
Cc1ccc([C@@H]2C[C@@H](Sc3ccc(Cl)cc3)[C@H](C(=O)O)CN2S(C)(=O)=O)cc1	105
Cc1ccc(S(=O)(=O)N2[C@@H](c3ccc(Br)cc3)C(C(=O)O)=CC[C@H]2c2ccc(C(C)C)cc2)cc1	83.7
COc1ccc([C@@H]2C[C@@H](Sc3ccccc3)[C@H](C(=O)O)CN2S(=O)(=O)c2ccc(C)cc2)cc1OC	112
Cc1ccc(S(=O)(=O)N2C[C@@H](C(=O)O)[C@H](SCc3ccc(C(C)(C)C)cc3)C[C@H]2c2cccc(Cl)c2)cc1	99
CCS[C@@H]1C[C@@H](c2ccc(C)cc2)N(S(=O)(=O)c2ccc(Cl)cc2)C[C@H]1C(=O)O	58.3
COc1ccc([C@@H]2CC=C(C(=O)O)[C@H](c3ccc(Cl)cc3)N2S(=O)(=O)c2ccccc2)cc1	86.8
Cc1ccc([C@@H]2C[C@@H](SCC(C)C)[C@H](C(=O)O)CN2S(=O)(=O)c2ccc(Cl)cc2)cc1	66.3
Cc1ccc(S(=O)(=O)N2[C@@H](c3ccc(Cl)cc3)C(C(=O)O)=CC[C@H]2c2cccc(F)c2)cc1	63.5
Cc1ccc(S(=O)(=O)N2C[C@@H](C(=O)O)[C@H](SC3CCCC3)C[C@H]2c2ccc3c(c2)OCO3)cc1	98.1
CCCCCCS[C@@H]1C[C@@H](c2ccc(OC)cc2)N(S(=O)(=O)c2ccc(C)cc2)C[C@H]1C(=O)O	83.6

SMILES	Activity [%]
CCCCS[C@@H]1C[C@@H](c2ccc(OC)cc2)N(S(=O)(=O)c2ccc(C)cc2)C[C@H]1C(=O)O	74.5
Cc1ccc([C@@H]2CC=C(C(=O)O)[C@H](c3ccc(F)cc3)N2S(=O)(=O)c2ccccc2)cc1	68.1
COc1ccc([C@@H]2CC=C(C(=O)O)[C@H](c3cccc(Br)c3)N2S(=O)(=O)c2ccc(C)cc2)cc1	84.5
CCCCCS[C@@H]1C[C@@H](c2ccc(OC)c(OC)c2)N(S(=O)(=O)c2ccc(C)cc2)C[C@H]1C(=O)O	109
COc1cccc([C@@H]2C[C@@H](SCC(C)C)[C@H](C(=O)O)CN2S(=O)(=O)c2ccc(C)cc2)c1	64.5
COc1ccc(S[C@@H]2C[C@@H](c3ccc(C)cc3)N(S(=O)(=O)c3ccccc3C)C[C@H]2C(=O)O)cc1	99
Cc1ccc(S(=O)(=O)N2C[C@@H](C(=O)O)[C@H](SCc3ccc(C(C)(C)C)cc3)C[C@H]2c2ccccc2F)cc1	71.9
Cc1ccc(S(=O)(=O)N2[C@@H](c3ccc(F)cc3)C(C(=O)O)=CC[C@H]2c2cccs2)cc1	62.3
CC(=O)C1=CC[C@@H](c2ccc(C)cc2)N(S(=O)(=O)c2ccccc2C)C1	85.3
Cc1ccc(S(=O)(=O)N2[C@@H](c3cccc(Cl)c3)C(C(=O)O)=CC[C@H]2c2cccc(F)c2)cc1	62.3
Cc1ccc([C@@H]2CC=C(C(=O)O)[C@H](c3cccc(F)c3)N2S(=O)(=O)c2ccc(Cl)cc2)cc1	54.5
COC(=O)c1ccccc1S(=O)(=O)N1[C@@H](c2ccc(Br)cc2)C(C(=O)O)=CC[C@H]1c1ccc(C)cc1	77.4
CCOc1ccc([C@@H]2CC=C(C(=O)O)[C@H](c3cccc(Br)c3)N2S(=O)(=O)c2ccc(C)cc2)cc1	78.4
CCCCS[C@@H]1C[C@@H](c2ccc3c(c2)OCO3)N(S(=O)(=O)c2ccc(C)cc2)C[C@H]1C(=O)O	80.4
Cc1ccc(S[C@@H]2C[C@@H](c3ccc(C)cc3)N(S(C)(=O)=O)C[C@H]2C(=O)O)cc1	108
Cc1ccc(S(=O)(=O)N2C[C@@H](C(=O)O)[C@H](SCCC(C)C)C[C@H]2c2ccc(Cl)cc2)cc1	39.4
Cc1ccc([C@@H]2C[C@@H](SCc3ccc(Cl)cc3)[C@H](C(=O)O)CN2S(=O)(=O)c2ccc(C)cc2)cc1	50.9
COc1ccc([C@@H]2CC=C(C(=O)O)[C@H](c3ccc(F)cc3)N2S(=O)(=O)c2ccc(Cl)cc2)cc1	67.2
COc1ccc([C@@H]2C[C@@H](SCC(C)C)[C@H](C(=O)O)CN2S(=O)(=O)c2ccc(Cl)cc2)cc1	75.6
Cc1ccc([C@H]2C(C(=O)O)=CC[C@@H](c3cccc(Br)c3)N2S(=O)(=O)c2ccc(C)cc2)cc1	67.4
Cc1ccc(S[C@@H]2C[C@@H](c3ccc(Cl)cc3)N(S(=O)(=O)c3ccc(C)cc3)C[C@H]2C(=O)O)cc1	76.1
C=CCS[C@@H]1C[C@@H](c2ccc(OC)cc2)N(S(=O)(=O)c2ccc(Cl)cc2)C[C@H]1C(=O)O	95.4
COc1ccc([C@@H]2C[C@@H](SCCC(C)C)[C@H](C(=O)O)CN2S(=O)(=O)c2ccc(C)cc2)cc1	90
Cc1ccc([C@@H]2C[C@@H](SCC(C)C)[C@H](C(=O)O)CN2S(=O)(=O)c2ccccc2C)cc1	78.3
CC(=O)C1=CC[C@@H](c2ccc(C)cc2)N(S(=O)(=O)c2ccccc2)C1	99
Cc1ccc(S(=O)(=O)N2[C@@H](c3ccc(Br)cc3)C(C(=O)O)=CC[C@H]2c2ccc(F)cc2)cc1	62.6

SMILES	Activity [%]
Cc1ccc(S(=O)(=O)N2[C@@H](c3ccc(F)cc3)C(C(=O)O)=CC[C@H]2c2ccc(F)cc2)cc1	66.8
C=CCS[C@@H]1C[C@@H](c2cc(OC)c(OC)c(OC)c2)N(S(=O)(=O)c2ccc(C)cc2)C[C@H]1C(=O)O	109
CS(=O)(=O)N1[C@@H](c2cccc(Cl)c2)C(C(=O)O)=CC[C@H]1c1ccccc1	72.4
COc1ccc([C@@H]2CC=C(C(=O)O)[C@H](c3ccc(Br)cc3)N2S(=O)(=O)c2ccccc2)cc1	82.3
CCc1ccc([C@@H]2C[C@@H](SCc3ccccc3)[C@H](C(=O)O)CN2S(=O)(=O)c2ccc(C)cc2)cc1	63.1
C=CCS[C@@H]1C[C@@H](c2ccc(C)cc2)N(S(C)(=O)=O)C[C@H]1C(=O)O	91.4
Cc1ccc([C@H]2C(C(=O)O)=CC[C@@H](c3ccc(C)cc3)N2S(=O)(=O)c2ccc(Cl)cc2)cc1	53
COc1ccc(S[C@@H]2C[C@@H](c3ccc(C)cc3)N(S(=O)(=O)c3ccccc3)C[C@H]2C(=O)O)cc1	100
CCOc1ccc([C@@H]2C[C@@H](SCCC(C)C)[C@H](C(=O)O)CN2S(=O)(=O)c2ccc(C)cc2)cc1	95.9
Cc1ccc(S(=O)(=O)N2[C@@H](c3cccc(F)c3)C(C(=O)O)=CC[C@H]2c2cccc(C)c2)cc1	75.6
Cc1ccc(S(=O)(=O)N2[C@@H](c3cccc(Cl)c3)C(C(=O)O)=CC[C@H]2c2ccccc2F)cc1	70.1
Cc1ccc(S(=O)(=O)N2[C@@H](c3ccc(Cl)cc3)C(C(=O)O)=CC[C@H]2c2ccccc2F)cc1	58.2
CS(=O)(=O)N1[C@@H](c2ccc(Br)cc2)C(C(=O)O)=CC[C@H]1c1ccccc1	83.6
CS(=O)(=O)N1[C@@H](c2ccc(Cl)cc2)C(C(=O)O)=CC[C@H]1c1ccc(Cl)cc1	55
Cc1ccc([C@@H]2CC=C(C(=O)O)[C@H](c3cccc(Cl)c3)N2S(=O)(=O)c2ccc(C)cc2)cc1	69.4
Cc1ccc(S(=O)(=O)N2C[C@@H](C(=O)O)[C@H](SCCC(C)C)C[C@H]2c2ccccc2F)cc1	58.4
Cc1ccc([C@@H]2CC=C(C(=O)O)[C@H](c3ccc(Cl)cc3)N2S(C)(=O)=O)cc1	79.1
CCCCCCS[C@@H]1C[C@@H](c2ccccc2)N(S(=O)(=O)c2ccc(C)cc2)C[C@H]1C(=O)O	77.5
COc1ccc([C@@H]2CC=C(C(=O)O)[C@H](c3cccc(Cl)c3)N2S(=O)(=O)c2ccc(C)cc2)cc1OC	87.8
Cc1ccc([C@@H]2CC=C(C(=O)O)[C@H](c3cccc(C)c3)N2S(C)(=O)=O)cc1	56
COc1ccc([C@@H]2CC=C(C(=O)O)[C@H](c3cccc(Br)c3)N2S(=O)(=O)c2ccc(Cl)cc2)cc1	60.7
COc1ccc([C@@H]2C[C@@H](SCC(C)C)[C@H](C(=O)O)CN2S(=O)(=O)c2ccc(C)cc2)cc1	79.3
CCCS[C@@H]1C[C@@H](c2cccc(Br)c2)N(S(=O)(=O)c2ccc(C)cc2)C[C@H]1C(=O)O	88.5
COc1ccc([C@@H]2CC=C(C(=O)O)[C@H](c3cccc(C)c3)N2S(=O)(=O)c2ccc(C)cc2)cc1	67.3
Cc1ccc([C@@H]2CC=C(C(=O)O)[C@H](c3ccc(C(C)(C)C)cc3)N2S(C)(=O)=O)cc1	78.2
Cc1ccc(S(=O)(=O)N2[C@@H](c3ccc(C(C)(C)C)cc3)C(C(=O)O)=CC[C@H]2c2cccc(F)c2)cc1	77.2
